{"source": "patent US20250032532A1", "about": "“COMBINATION OF OCTAPEPTIDE AND HIGH MOLECULAR WEIGHT HYALURONIC ACID FOR TOPICAL APPLICATION” (Alastin Skincare, Inc., priority 2022, published 2025)", "key": {"[1]": {"test_system": "Hyaluronic Acid Synthase 2 (HAS2)", "assay": "RNA-Seq gene expression of HAS2 in keratinocytes", "type": "cell-based, Human", "details": "100 μg/ml, 24 hr", "procedure": "(§1) Cell Lines. Human adult dermal fibroblast and keratinocyte cell lines were treated with 11 different compound treatments (plus DMSO control as treatment #12). Primary cells were plated in cell specific media at 5K or 10K cells per cm^2. Cells were plated in 48 well plates in triplicate, one cell line per plate. Media volume was 500ul per well. Outer two columns of wells were not used. Cells were cultured for 2 days in 37° C. 5% CO2 incubator. After 48 hours all the cell cultures were uniform and appeared healthy, no appreciable number of floating dead cells or evidence of vacuolization of cells that might indicate apoptotic or dying cells.\n(§2) Compounds. Stocks of compounds 1 through 8 on the list below were prepared in PBS at 100× the concentration indicated in red type. […] This stock was 100× of final concentration. A 20 mg/ml stock of compound 10 (CBD) was prepared in DMSO. […]\n(§3) RNA lysate preparation. […] All samples were shipped frozen on dry ice for RNA extraction, library construction and sequencing to 25 M paired end 100 bp reads per sample.\n(§4) RNA-Seq. All the RNA samples were shipped frozen on dry ice for RNA extraction, library construction and sequencing to 25 M paired end 100 bp reads per sample. Differentially expressed genes were identified and pathway enrichment was assessed using the Reactome Pathway."}, "Hyaluronidase 2 (HYAL2)": {"test_system": "Hyaluronidase 2 (HYAL2)", "assay": "RNA-Seq gene expression of HYAL2 in keratinocytes", "type": "cell-based, Human", "details": "100 μg/ml, 24 hr", "procedure": "as §1, §2, §3, §4"}, "[2]": {"test_system": "Early Growth Response 3 (EGR3)", "assay": "RNA-Seq gene expression of EGR3 in keratinocytes", "type": "cell-based, Human", "details": "100 μg/ml, 24 hr", "procedure": "as §1, §2, §3, §4"}, "[3]": {"test_system": "Hyaluronic Acid Synthase 2 (HAS2)", "assay": "RNA-Seq gene expression of HAS2 in dermal fibroblasts", "type": "cell-based, Human", "details": "100 μg/ml, 24 hr", "procedure": "as §1, §2, §3, §4"}, "Human dermal fibroblasts": {"test_system": "Human dermal fibroblasts", "assay": "Octapeptide dose-response of high MW HA production (band density)", "type": "cell-based", "details": "72 hours", "procedure": "Human dermal fibroblasts were treated with Octapeptide (1× and 10×; corresponding to 10 μg/ml and 100 μg/ml respectively) or left untreated. After 72 hours, the supernatant was collected, concentrated, run on an SDS-PAGE, stained and imaged. The experiment was conducted 4 times and the density of the bands from each supernatant were quantified (arbitrary units (AU)) using ImageJ. The data was graphed in FIG. 6 and represents the mean±standard deviation of the band densities for each treatment condition."}}, "data": [{"substance": "Hexapeptide-11", "values": [{"measurement": "fold-change in HAS2 gene expression relative to non-treated cells", "setting": "[1]", "value": "excellent upregulation"}, {"measurement": "fold-change in HYAL2 gene expression relative to non-treated cells", "setting": "Hyaluronidase 2 (HYAL2)", "value": "potent downregulation"}, {"measurement": "upregulation of EGR3 gene expression relative to non-treated cells", "setting": "[2]", "value": "about seven"}]}, {"substance": "Octapeptide: proprietary peptide designed by Alastin; in some embodiments octapeptide-45, amino acid sequence GPHGVREA (Gly-Pro-His-Gly-Val-Arg-Glu-Ala)", "values": [{"measurement": "fold-change in HAS2 gene expression relative to non-treated cells", "setting": "[3]", "value": "excellent stimulation"}, {"measurement": "fold-change in HYAL2 gene expression relative to non-treated cells", "setting": "Hyaluronidase 2 (HYAL2)", "value": "modest downregulation"}, {"measurement": "production of high MW HA in dermal fibroblasts", "setting": "Human dermal fibroblasts; 1× and 10× (10 μg/ml and 100 μg/ml)", "value": "dose-responsive increase"}, {"measurement": "density of high MW HA band (ImageJ)", "setting": "Human dermal fibroblasts; 10× Octapeptide (100 μg/ml), 4 experiments", "value": "vast increase in signal density"}]}]}
